Literature values in US6428819B1, “Plant extracts for the preparation of pharmaceutical compositions for the treatment of hepatitis” (priority 1996, dated 2002).

Tested on: hepatitis C
Details: literature reports

Nc1nc2c(ncn2COCCO)c(=O)[nH]1 [Acyclovir]
treatment outcome in chronic hepatitis: unsatisfactory

B1: IFN-gamma: interferon gamma with known antiviral activity (protein, UniProt P01579 24-161, looked up)
Interferon gamma: QDPYVKEAENLKKYFNAGHSDVADNGTLFLGILKNWKEESDRKIMQSQIVSFYFKLFKNFKDDQSIQKSVETIKEDMNVKFFNSNKKKRDDFEKLTNYSVTDLNVQRKAIHELIQVMAELSPAAKTGKRKRSQMLFRG
treatment outcome in chronic hepatitis: ineffective
